Among the test systems are A549; CAKI-1; HCT-15; HOP-18; HOP-62; KM12; Malme-3M; NCI-H226; SF-295; SK-MEL-28; SK-MEL-5; SK-OV-3; SN12C; SNB-19; SNB-75; U-251; EKVX; HCC 2998; MDA-MB-435; MDA-N.
Common to all, as to test: DTP human tumour cell line panel, 48 h

Molecules are shown by their SMILES. Values joined by “and” are separate entries in the source; they are usually repeats but may differ in a detail not shown here. Identical values can stand only once.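 Interpolation was linear, between the two tested concentrations surrounding the appropriate level; five concentrations were tested over 48 hours in 96-well plates. GI50 marks 50% less growth.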 Active and inactive are the calls of the source. Cut-off read from the data, not from the text of the source: active = GI50 up to about 1.1 µM and inactive = higher.

A word on the GI50: it is the concentration giving 50% growth inhibition.

On to `CN(C)CCNc1ccc2ncn3c4ccccc4c(=O)c1c23`, for which the GI50 with A549 was 1.82 µM (inactive); in the assay on CAKI-1 it was 2.26 µM (inactive); in the assay with HCT-15, 2.85 µM; in the assay with HOP-18, 1.17 µM (inactive); in the assay with HOP-62 it was 4.46 µM (inactive); with KM12, 2.44 µM (inactive). For the same compound, the GI50 was 2.34 µM (inactive) in the assay with Malme-3M; 1.91 µM (inactive) with NCI-H226; 2.47 µM (inactive) in the assay with SF-295; 3.93 µM (inactive) in the assay on SK-MEL-28; 2.74 µM (inactive) in the assay on SK-MEL-5; 2.09 µM (inactive) in the assay with SK-OV-3. The GI50 with SN12C was 2.9 µM (inactive); with SNB-19, 7.96 µM (inactive); in the assay with SNB-75, 3.25 µM (inactive); with U-251 it was 3.02 µM (inactive).

For the compound `NCCCNCCSSC/C=C\CSSCCNCCCN`, the GI50 in the assay on CAKI-1 is 36.1 µM (inactive) and 38.5 µM (inactive); with EKVX it was > 100 µM (inactive); with HCC 2998 it was 90.6 µM (inactive); in the assay on HCT-15, > 100 µM and 63.7 µM; in the assay on HOP-18 it was > 100 µM (inactive); in the assay on KM12, 17.7 µM (inactive) and 18.9 µM (inactive). Also, the GI50 with Malme-3M was 78 µM (inactive); in the assay on SK-MEL-28, > 100 µM (inactive); in the assay on SK-MEL-5, 41.1 µM (inactive) and 62.1 µM (inactive); with SK-OV-3, > 100 µM (inactive); in the assay on SN12C, 75.7 µM (inactive) and 44.4 µM (inactive); in the assay on SNB-19, > 100 µM (inactive). For the same compound, the GI50 in the assay on SNB-75 is 39.5 µM (inactive) and 37.3 µM (inactive); with U-251, > 100 µM (inactive) and 53.8 µM (inactive).

`O=C(CN(c1ccccc1)c1ccccc1)N1c2ccccc2C2C=CC=CC21` (stereo unspecified): the GI50 in the assay on A549 is 23.8 µM (inactive); in the assay on CAKI-1 it was 18.3 µM (inactive); in the assay on EKVX, 24.3 µM (inactive); with HCT-15 it was 16.7 µM; in the assay with HOP-18, 25.6 µM (inactive); in the assay with HOP-62, 20.1 µM (inactive). Moreover, the GI50 in the assay with KM12 was 27.3 µM (inactive); in the assay with Malme-3M, 21.6 µM (inactive); in the assay on NCI-H226, 18.5 µM (inactive); with SF-295, 24.5 µM (inactive); with SK-MEL-28, 30.4 µM (inactive); in the assay on SK-MEL-5 it was 15.6 µM (inactive). The GI50 with SK-OV-3 was 23.6 µM (inactive); in the assay on SN12C, 8.34 µM (inactive); in the assay with SNB-19, 17.5 µM (inactive); in the assay on SNB-75 it was 18.1 µM (inactive); in the assay with U-251 it was 21.3 µM (inactive).

With `C/C(=N\Nc1ccc([N+](=O)[O-])cc1)C(=O)N(C)Nc1ccccc1`, the GI50 was 40.5 µM (inactive) in the assay with A549; 34.5 µM (inactive) in the assay on EKVX; 33.8 µM (inactive) in the assay with HCC 2998; 48.1 µM with HCT-15; > 100 µM (inactive) in the assay on HOP-18; > 100 µM (inactive) in the assay with HOP-62. For the same compound, the GI50 with KM12 was 24 µM (inactive); with NCI-H226 it was 38.9 µM (inactive); in the assay with SF-295 it was 34.5 µM (inactive); in the assay on SK-OV-3 it was > 100 µM (inactive); in the assay with SN12C it was 74 µM (inactive); in the assay with SNB-19, > 100 µM (inactive). Moreover, the GI50 in the assay on SNB-75 was 27.6 µM (inactive); in the assay on U-251 it was 62.1 µM (inactive).

As for `N=C(N)n1ncc(Cl)c(Cl)c1=O`, the GI50 is 17.1 µM (inactive) with A549; 1.81 µM (inactive) with CAKI-1; 2.36 µM (inactive) in the assay with EKVX; 1.87 µM in the assay with HCT-15; 1.38 µM (inactive) with HOP-18; 6.5 µM (inactive) in the assay on KM12. The GI50 in the assay with Malme-3M was 2.21 µM (inactive); with NCI-H226, 5.25 µM (inactive); in the assay on SF-295 it was 10.8 µM (inactive); in the assay with SK-MEL-28 it was 2.32 µM (inactive); in the assay with SK-MEL-5 it was 4.39 µM (inactive); in the assay with SK-OV-3, 17.9 µM (inactive). Further, the GI50 in the assay on SN12C was 2.69 µM (inactive); in the assay on SNB-19 it was 4.16 µM (inactive); in the assay on SNB-75, 2.99 µM (inactive); in the assay with U-251, 7.11 µM (inactive).

`Nc1nc(Cl)c(N)c(NCC2(CO)CCC2)n1`: the GI50 in the assay on A549 is > 100 µM (inactive); with CAKI-1 it was > 100 µM (inactive); with EKVX, > 100 µM (inactive); in the assay with HCC 2998, > 100 µM (inactive); with HCT-15, more than 100 µM; in the assay on HOP-62, > 100 µM (inactive). The GI50 in the assay on KM12, in the assay with MDA-MB-435, in the assay with MDA-N, in the assay on Malme-3M, in the assay with NCI-H226 and in the assay on SF-295 was > 100 µM (inactive) throughout. Also, the GI50 in the assay on SK-MEL-28 was > 100 µM (inactive); in the assay with SK-MEL-5, 75.9 µM (inactive); in the assay on SK-OV-3 it was > 100 µM (inactive); with SN12C it was > 100 µM (inactive); in the assay on SNB-19 it was > 100 µM (inactive); with SNB-75, > 100 µM (inactive). The GI50 in the assay with U-251 was > 100 µM (inactive).

As for `N#Cc1ccc(OCCSCCCCCCCCCCSCCOc2ccc(C#N)cc2)cc1`, the GI50 with A549 is > 100 µM (inactive); in the assay on EKVX it was > 100 µM (inactive); with HCC 2998 it was > 100 µM (inactive); with HCT-15, more than 100 µM; in the assay on HOP-18, > 100 µM (inactive); with HOP-62, > 100 µM (inactive). In addition, the GI50 is > 100 µM (inactive) in the assay on KM12; > 100 µM (inactive) in the assay on Malme-3M; > 100 µM (inactive) in the assay with NCI-H226; 22.6 µM (inactive) with SF-295; > 100 µM (inactive) in the assay on SK-MEL-28; 3.03 µM (inactive) with SK-MEL-5. Also, the GI50 with SK-OV-3, in the assay on SN12C, in the assay on SNB-75 and with U-251 was > 100 µM (inactive) in each case.

In the case of `NC(=S)N/N=C1\CCCC\C1=C/c1ccccc1`, the GI50 with A549 is > 100 µM (inactive); in the assay on EKVX, 99.8 µM (inactive); with HCC 2998, > 100 µM (inactive); with HCT-15, 67.1 µM; in the assay on HOP-18, 38.2 µM (inactive); in the assay on HOP-62, > 100 µM (inactive). The GI50 in the assay with KM12 was 45.1 µM (inactive); in the assay on Malme-3M it was 60.8 µM (inactive); with SF-295 it was > 100 µM (inactive); in the assay on SK-MEL-28 it was > 100 µM (inactive); with SK-OV-3 it was > 100 µM (inactive); with SN12C it was 39.5 µM (inactive). Further, the GI50 in the assay on SNB-19 is > 100 µM (inactive); with SNB-75 it was 30.5 µM (inactive); with U-251, 40.5 µM (inactive).

Take `O=C(CCC(=O)C1Cc2ccccc2C1=O)Nc1cccc(C(F)(F)F)c1` (stereo unspecified): the GI50 was > 100 µM (inactive) with A549; > 100 µM (inactive) in the assay on CAKI-1; > 100 µM (inactive) in the assay with EKVX; > 100 µM (inactive) with HCC 2998; more than 100 µM with HCT-15; > 100 µM (inactive) with HOP-18. For the same compound, the GI50 was > 100 µM (inactive) in the assay on HOP-62; > 100 µM (inactive) with KM12; > 100 µM (inactive) with Malme-3M; > 100 µM (inactive) in the assay with NCI-H226; > 100 µM (inactive) with SF-295; > 10 µM (inactive) in the assay with SK-MEL-28. Also, the GI50 in the assay on SK-MEL-5, with SK-OV-3, in the assay on SN12C, with SNB-19 and in the assay with U-251 was > 100 µM (inactive) in each case.

With `CC(=O)Oc1c(C)c2c(c3ncccc13)OC(C)C2` (stereo unspecified), the GI50 with A549 was 13.4 µM (inactive); with CAKI-1, 14.6 µM (inactive); in the assay on EKVX, 17.1 µM (inactive); in the assay with HCC 2998, 12.8 µM (inactive); with HCT-15, 12.1 µM; in the assay on HOP-62, 17.1 µM (inactive). Besides, the GI50 is 15.1 µM (inactive) with KM12; 6.14 µM (inactive) in the assay on MDA-MB-435; 11 µM (inactive) in the assay on MDA-N; 16.3 µM (inactive) in the assay with Malme-3M; 16.4 µM (inactive) in the assay with NCI-H226; 14.7 µM (inactive) in the assay on SF-295. The GI50 in the assay with SK-MEL-28 is 13.9 µM (inactive); in the assay on SK-MEL-5, 14.5 µM (inactive); in the assay on SK-OV-3, 21 µM (inactive); in the assay with SN12C, 16.2 µM (inactive); in the assay with SNB-19, 34 µM (inactive); in the assay on SNB-75, 14.8 µM (inactive). Also, the GI50 in the assay on U-251 was 15.5 µM (inactive).

Take `CCOC(=O)c1c(-c2ccccc2)[nH]c2ccc(Cl)cc2c1=O`: the GI50 with A549 is 36.6 µM (inactive); in the assay on CAKI-1, 37.9 µM (inactive); in the assay on EKVX it was 54.6 µM (inactive); in the assay on HCC 2998, 37.9 µM (inactive); in the assay on HCT-15, 33.3 µM; in the assay with HOP-62, 65.9 µM (inactive). The GI50 with KM12 was 34.8 µM (inactive); in the assay on MDA-MB-435, 34.8 µM (inactive); with MDA-N, 37.7 µM (inactive); in the assay on Malme-3M it was 61.8 µM (inactive); in the assay on NCI-H226, 68.9 µM (inactive); with SF-295, 47.8 µM (inactive). Also, the GI50 in the assay on SK-MEL-28 is 69.7 µM (inactive); with SK-MEL-5, 29.8 µM (inactive); in the assay on SK-OV-3, 45.1 µM (inactive); in the assay with SN12C, 51.4 µM (inactive); in the assay on SNB-19, > 100 µM (inactive); with SNB-75, 45.8 µM (inactive). Moreover, in the assay with U-251, the GI50 was 41.6 µM (inactive).

Consider `CN1C(=O)C(O)CC1c1cccc(F)c1` (stereo unspecified), for which the GI50 with A549 is > 100 µM (inactive); in the assay with CAKI-1, > 100 µM (inactive); in the assay on EKVX, > 100 µM (inactive); in the assay with HCC 2998, > 100 µM (inactive); with HCT-15, more than 100 µM; with HOP-62, > 100 µM (inactive). The GI50 in the assay with KM12, with MDA-MB-435, in the assay on MDA-N, in the assay with Malme-3M, in the assay on NCI-H226 and with SF-295 was > 100 µM (inactive) each time. Besides, the GI50 with SK-MEL-28 was > 100 µM (inactive); in the assay on SK-MEL-5 it was > 100 µM (inactive); with SK-OV-3 it was > 100 µM (inactive); in the assay on SN12C, > 100 µM (inactive); in the assay with SNB-19 it was > 100 µM (inactive); with SNB-75, 55.7 µM (inactive). For the same compound, the GI50 in the assay on U-251 was > 100 µM (inactive).

The values above are taken from ChEMBL document CHEMBL1201862, “PubChem BioAssay data set” (2004).
